Holding throughout (format): cell-based
One data set relates to HIV-1 LTR promoter. The data set can be described thus: Activation of the HIV LTR in CEMss LTR-GFP reporter cells (GFP by flow cytometry). Here is the method:
CEMss LTR-GFP cells were infected with NL43 and cultured in the presence of the BET antagonists JQ1(+) (1 μM) or the control enantiomer JQ1(−). GFP expression in cells was examined by flow cytometry. A representative of three experiments is shown. FIG. 2B provides a graph showing GFP expression in cells when cultured with different amounts of JQ1, as determined by flow cytometry. 0.25 μM of JQ1(+) was sufficient to dramatically increase the expression of GFP in NL43 infected CEMss LTR-GFP cells. FIGS. 2C and 2D show percentage of GFP expression (FIG. 2C) and mean fluorescence of GFP (MFI; FIG. 2D) in CEMss LTR-GFP cells cultured in the presence of JQ1(+) or JQ1(−) (1 μM), and different amount of HIV-1 Tat. FIG. 2E provides dot plots of CEMss LTR-GFP cells were cultured with increasing amounts of HIV Tat (0, 8, 16 or 32 μg/ml) in the presence of JQ1(+) or JQ1(−) (1 μM) for 1 day. Non-underlined numbers indicate percentage of GFP and underlined numbers indicate mean fluorescence of GFP (MFI).
GFP expression was measured by flow cytometry. FIGS. 3B and 3C shown the percentage of cells positive for GFP (FIG. 3B) and the mean MFI of GFP (FIG. 3C) in latently infected cell lines, J-Lat clones 82, A72, A7, A2, and A1, at 16 hours after TNFα or PHA was added in the cultures in the presence of JQ1(+) or JQ1(−). […] GFP expression in cells was measured by flow cytometry and is indicated as percent of GFP+ cells in gated live cell populations. An average of 5 experiments is shown. * p<0.05, ** p<0.01, *** p<0.001. […] Average of 3 experiments is shown. * p<0.05. For FIG. 3F, J-Lat A2 and A72 cells were reactivated with TNFα (20 ng/ml) or HIV Tat protein (50 μg/ml) in the presence of JQ1(+) or JQ1(−) for 16-18 hours, and GFP expression in cells was measured by flow cytometry. One representative experiment is shown. In each dot plot, non-underlined numbers indicate percentage of GFP+ cells and underlined numbers indicate mean fluorescence of GFP (MFI).
BET antagonists also drive activation of the HIV LTR. Specifically, the effects of JQ1 on transcription from the HIV LTR were tested. CEMss LTR-GFP cells (a reporter cell line stably transfected with GFP under the control of the HIV-1 LTR promoter) were infected with NL43 and cultured in the presence of BET antagonists or controls. GFP expression was measured at days 0, 1, 2, 3, and 6 post-infection. GFP expression was higher in the presence of the BET inhibitor (JQ1) compared to controls (FIG. 2A). Further, by varying the amount of JQ1, it was determined that 0.25 μM of JQ1(+) was sufficient to dramatically increase Tat-driven HIV-1 transcription (FIG. 2B). CEMss LTR-GFP cells were also cultured in the presence of JQ1(+) or JQ1(−) (1 μM) and different amount of HIV-1 Tat (0-32 μg/ml). […] FIG. 2E provides dot plots of the experiments.
Next, the effect of JQ1 on activation of the HIV LTR was tested using a latently infected Jurkat-derived cell clone, J-Lat clone A2. GFP expression in J-Lat clone A2 is induced upon reactivation with tumor necrosis factor-alpha (TNFα) or phytohaemagglutinin (PHA).
On the technique in general: In flow cytometry, cells or beads pass a laser one at a time.

Data set [1] concerns RNA polymerase II binding to the HIV LTR. The data set can be described thus: Chromatin immunoprecipitation (ChIP) of HIV LTR DNA, RNA polymerase II. To be noted: CEMss LTR-GFP cells infected with HIV NL4-3, days 3 to 5, compared to JQ1(−), p<0.001. As to the method:
FIGS. 7A and 7B show the fold increase in the binding of IgG, RNA polymerase II, or Cdk9 to the HIV LTR in the presence of JQ1(+) or JQ1(−) for early (FIG. 7A) and late (FIG. 7B) HIV-1 transcript. ***p<0.001.
To further investigate the mechanism of JQ1(+) reactivation of HIV transcription in latently infected T-cells, the binding of RNA polymerase II (PoI II) and p-TEFb (Cdk9/Cyclin T) to the promoter region of HIV LTR was measured using chromatin immunoprecipitation (ChIP). A CEMss reporter cell line stably transfected with GFP under the control of the HIV LTR promoter was used. CEMss LTR-GFP cells were infected with HIV NL4-3 in the presence of JQ1(+) or JQ1(−). At days 3 to 5 of infection, cells were collected and sheared, and formaldehyde cross-linked chromatin extracts were immunoprecipitated with antibodies specific for IgG, RNA polymerase II, or Cdk9. The abundance of HIV LTR DNA in immunoprecipitates was assessed by qPCR with two sets of primers specific for early or late regions of the HIV LTR.

In the next data set the test system is Primary CD4 T-cells. The data set can be described thus: Cell death of HIV-infected primary CD4 T-cells (FSC/SSC). The conditions noted are these: primary activated CD4 T-cells infected with NL43 or SG3, 0.1 μM, days 3-13. As to the method: Primary CD4 T-cells were activated with anti-CD3/28, then infected with HIV, NL43 or SG3, and cultured in the presence of JQ1(+) (1 μM or 0.1 μM) or media. At days 3, 6, 10 and 13 after infection, cell death was measured by percent of FSC/SSC (forward scatter/side scatter) as indicated in individual plots (FIGS. 8A and 8C). The expression of p24 in live cells was examined by flow cytometry and is shown as the percentage of p24+ cells (FIGS. 8B and 8D).
Of note, mean fluorescence of p24 was unchanged in the presence of the active inhibitor, indicating there was not a non-specific toxic drug effect and supporting the observation that BET antagonism inhibits HIV production at late time points of infection in primary activated CD4 T-cells.

As to `Cc1sc2c(c1C)C(c1ccc(Cl)cc1)=N[C@@H](CC(=O)OC(C)(C)C)c1nnc(C)n1-2` [JQ1(+), tert-butyl 2-((6S)-4-(4-chlorophenyl)-2,3,9-trimethyl-6H-thieno[3,2-f][1,2,4]triazolo[4,3-a][1,4]diazepin-6-yl)acetate], the GFP expression entry with HIV-1 LTR promoter (CEMss LTR-GFP cells infected with NL43, 1 μM, compared to controls, days 0-6) was “higher”. Moreover, the “TNFα-induced activation of the HIV LTR” value with HIV-1 LTR promoter (CEMss LTR-GFP cells, 20 ng/ml TNFα, 1 μM, 1 day, absence of Tat) was “promotes”. In addition, the “Mean fluorescence intensities (MFI) of GFP” value in the data set on HIV-1 LTR promoter (CEMss LTR-GFP cells, 1 μM, with 8, 16 or 32 μg/ml HIV-1 Tat) is reported as “dramatically enhanced”. In the data set with HIV-1 LTR promoter (NL43 infected CEMss LTR-GFP cells), the “Amount sufficient to dramatically increase Tat-driven HIV-1 transcription (GFP expression)” value is 0.25 µM. Besides, the “Binding of RNA Pol II to the HIV LTR” value in data set [1] is given as “significantly increased”. Also, the Cell death entry in the data set with Primary CD4 T-cells is recorded as “did not cause cell death above control values”.
